# Results taken from US10308637B2 (LifeSci Pharmaceuticals, Inc., priority 2015, dated 2019).
# Experiment: Contact Assay (percentage inhibition from fluorescence intensity)
# Type: biochemical
# Protocol: The percentage inhibition was calculated using the following equation:
# [formula] where, Mean(BG) is the average value of the fluorescence intensity of the background wells and Mean(PC) is the average value of the fluorescence intensity of the positive control wells.
# Table 4 provides the EC50 values of various compounds disclosed herein.
row,SMILES,EC50 [nM]
1,"Cc1cc(N)nc(C)c1CNC(=O)c1ccnc(Cc2ccc3c(cc(Cl)c[n+]3[O-])c2)c1 [Example 99, 6-((4-(((6-amino-2,4-dimethylpyridin-3-yl)methyl)carbamoyl)pyridin-2-yl)methyl)-3-chloroquinoline 1-oxide]",≤ 100
2,"Cc1cc(N)nc(C)c1CNC(=O)c1ccnc(Cc2cc(Cl)c3ncc(Cl)cc3c2)c1 [Example 100, N-((6-amino-2,4-dimethylpyridin-3-yl)methyl)-2-((3,8-dichloroquinolin-6-yl)methyl)isonicotinamide]",≤ 100
3,"Cc1nc(N)ccc1CNC(=O)c1ccnc(Cc2cc(Cl)c3ncc(Cl)cc3c2)c1 [Example 101, N-((6-amino-2-methylpyridin-3-yl)methyl)-2-((3,8-dichloroquinolin-6-yl)methyl)isonicotinamide]",≤ 100
4,"Cc1cc(N)nc(C)c1CNC(=O)c1ccnc(Cc2ccc3ncc(Cl)cc3c2F)c1 [Example 102, N-((6-amino-2,4-dimethylpyridin-3-yl)methyl)-2-((3-chloro-5-fluoroquinolin-6-yl)methyl)isonicotinamide]",100 to 1000
5,"Cc1cc(C(=O)NCc2c(C)cc(N)nc2C)cc(Cc2ccc3ncc(Cl)cc3c2)n1 [Example 104, N-((6-amino-2,4-dimethylpyridin-3-yl)methyl)-2-((3-chloroquinolin-6-yl)methyl)-6-methylisonicotinamide]",≤ 100
6,"Cc1ccc2cc(Cc3cc(C(=O)NCc4c(C)cc(N)nc4C)ccn3)ccc2n1 [Example 113, N-((6-amino-2,4-dimethylpyridin-3-yl)methyl)-2-((2-methylquinolin-6-yl)methyl)isonicotinamide]",≤ 100
7,"Cc1ccc2ncc(Cc3cc(C(=O)NCc4ccc5c(N)nccc5c4)ccn3)cc2c1 [Example 115, N-((1-aminoisoquinolin-6-yl)methyl)-2-((6-methylquinolin-3-yl)methyl)isonicotinamide]",≤ 100
8,"Cc1cnc2ccc(Cc3cc(C(=O)NCc4ccc5c(N)nccc5c4)ccn3)cc2c1 [Example 142, N-((1-aminoisoquinolin-6-yl)methyl)-2-((3-methylquinolin-6-yl)methyl)isonicotinamide]",≤ 100
9,"Cc1cc(N)nc(C)c1CNC(=O)c1ccnc(Cc2cc3cc(Cl)cnc3cn2)c1 [Example 148, N-((6-amino-2,4-dimethylpyridin-3-yl)methyl)-2-((3-chloro-1,7-naphthyridin-6-yl)methyl)isonicotinamide]",≤ 100
10,"Cc1nc(N)ccc1CNC(=O)c1ccnc(Cc2cc3cc(Cl)cnc3cn2)c1 [Example 149, N-((6-amino-2-methylpyridin-3-yl)methyl)-2-((3-chloro-1,7-naphthyridin-6-yl)methyl)isonicotinamide]",≤ 100
11,"Cc1cc(N)nc(C)c1CNC(=O)c1ccnc(Cc2cnc3[nH]c(C(F)(F)F)cc3c2)c1 [Example 152, N-((6-amino-2,4-dimethylpyridin-3-yl)methyl)-2-((2-(trifluoromethyl)-1H-pyrrolo[2,3-b]pyridin-5-yl)methyl)isonicotinamide]",100 to 1000
12,"Cc1cc(N)nc(C)c1CNC(=O)c1ccnc(Cc2cc3cc(Cl)cn3cn2)c1 [Example 153, N-((6-amino-2,4-dimethylpyridin-3-yl)methyl)-2-((6-chloropyrrolo[1,2-c]pyrimidin-3-yl)methyl)isonicotinamide]",≤ 100
13,"Cc1nc2c(c(C)c1CNC(=O)c1ccnc(Cc3ccc4ncc(C(F)(F)F)cc4c3)c1)CCN2 [Example 176, N-((4,6-dimethyl-2,3-dihydro-1H-pyrrolo[2,3-b]pyridin-5-yl)methyl)-2-((3-(trifluoromethyl)quinolin-6-yl)methyl)isonicotinamide]",100 to 1000
14,"Cc1cc2c(N)nccc2cc1CNC(=O)c1ccnc(Cc2ccc3ncc(C(F)(F)F)cc3c2)c1 [Example 183, N-((1-amino-7-methylisoquinolin-6-yl)methyl)-2-((3-(trifluoromethyl)quinolin-6-yl)methyl)isonicotinamide]",≤ 100
15,"Cc1cc(N)nc(C)c1CNC(=O)c1ccnc(Cc2cnc3ncc(Cl)cc3c2)c1 [Example 204, N-((6-amino-2,4-dimethylpyridin-3-yl)methyl)-2-((6-chloro-1,8-naphthyridin-3-yl)methyl)isonicotinamide]",≤ 100
16,"Cc1cc(N)nc(C)c1CNC(=O)c1cc(Cc2ccc3ncc(Cl)cc3c2)nc(C(N)=O)c1 [Example 208, N^4-((6-amino-2,4-dimethylpyridin-3-yl)methyl)-6-((3-chloroquinolin-6-yl)methyl)pyridine-2,4-dicarboxamide]",≤ 100
17,"Cc1cc(N)nc(C)c1CNC(=O)c1cc(Cc2ccc3ncc(Cl)cc3c2)nc(C(C)(C)O)c1 [Example 210, N-((6-amino-2,4-dimethylpyridin-3-yl)methyl)-2-((3-chloroquinolin-6-yl)methyl)-6-(2-hydroxypropan-2-yl)isonicotinamide]",≤ 100
18,"Cc1cc(N)nc(C)c1CNC(=O)c1cc(CN)nc(Cc2ccc3ncc(Cl)cc3c2)c1 [Example 211, N-((6-amino-2,4-dimethylpyridin-3-yl)methyl)-2-(aminomethyl)-6-((3-chloroquinolin-6-yl)methyl)isonicotinamide]",≤ 100
19,"Cc1cc(N)nc(C)c1CNC(=O)c1cc(CO)nc(Cc2ccc3ncc(Cl)cc3c2)c1 [Example 212, N-((6-amino-2,4-dimethylpyridin-3-yl)methyl)-2-((3-chloroquinolin-6-yl)methyl)-6-(hydroxymethyl)isonicotinamide]",≤ 100
20,"Cc1cc(N)nc(C)c1CNC(=O)c1cc(CC#N)nc(Cc2ccc3ncc(Cl)cc3c2)c1 [Example 213, N-((6-amino-2,4-dimethylpyridin-3-yl)methyl)-2-((3-chloroquinolin-6-yl)methyl)-6-(cyanomethyl)isonicotinamide]",≤ 100

# Other lines, results leading:
row,EC50 [nM],SMILES
1,≤ 100,"Cc1ccc2ncc(Cc3cc(C(=O)NCc4c(C)cc(N)nc4C)ccn3)cc2c1 [Example 114, N-((6-amino-2,4-dimethylpyridin-3-yl)methyl)-2-((6-methylquinolin-3-yl)methyl)isonicotinamide]"
2,≤ 100,"Nc1nccc2cc(CNC(=O)c3ccnc(Cc4cnc5ccc(F)cc5c4)c3)ccc12 [Example 118, N-((1-aminoisoquinolin-6-yl)methyl)-2-((6-fluoroquinolin-3-yl)methyl)isonicotinamide]"
3,≤ 100,"Cc1cnc2ccc(Cc3cc(C(=O)NCc4c(C)cc(N)nc4C)ccn3)cc2c1 [Example 144, N-((6-amino-2,4-dimethylpyridin-3-yl)methyl)-2-((3-methylquinolin-6-yl)methyl)isonicotinamide]"
4,≤ 100,"Cc1cc2cc(Cc3cc(C(=O)NCc4c(C)cc(N)nc4C)ccn3)ccc2cn1 [Example 145, N-((6-amino-2,4-dimethylpyridin-3-yl)methyl)-2-((3-methylisoquinolin-6-yl)methyl)isonicotinamide]"
5,100 to 1000,"Cc1ccn2cnc(CNC(=O)c3ccnc(Cc4ccc5ncc(Cl)cc5c4)c3)c2c1 [Example 156, 2-((3-chloroquinolin-6-yl)methyl)-N-((7-methylimidazo [1,5-a]pyridin-1-yl)methyl)isonicotinamide]"
6,100 to 1000,"Cc1cc(CN)nc(C)c1CNC(=O)c1ccnc(Cc2ccc3ncc(Cl)cc3c2)c1 [Example 171, N-((6-(aminomethyl)-2,4-dimethylpyridin-3-yl)methyl)-2-((3-chloroquinolin-6-yl)methyl)isonicotinamide]"
7,≤ 100,"Cc1cc(CN)nc(C)c1CNC(=O)c1ccnc(Cc2ccc3ncc(C(F)(F)F)cc3c2)c1 [Example 172, N-((6-(aminomethyl)-2,4-dimethylpyridin-3-yl)methyl)-2-((3-(trifluoromethyl)quinolin-6-yl)methyl)isonicotinamide]"
8,≤ 100,"Cc1c(CNC(=O)c2ccnc(Cc3ccc4ncc(Cl)cc4c3)c2)ccc2c(N)nccc12 [Example 177, N-((1-amino-5-methylisoquinolin-6-yl)methyl)-2-((3-chloroquinolin-6-yl)methyl)isonicotinamide]"
9,≤ 100,"Nc1nccc2c(F)c(CNC(=O)c3ccnc(Cc4ccc5ncc(Cl)cc5c4)c3)ccc12 [Example 178, N-((1-amino-5-fluoroisoquinolin-6-yl)methyl)-2-((3-chloroquinolin-6-yl)methyl)isonicotinamide]"
10,≤ 100,"Nc1nccc2cc(CNC(=O)c3ccnc(Cc4ccc5ncc(Cl)cc5c4)c3)ccc12 [Example 179, N-((1-aminoisoquinolin-6-yl)methyl)-2-((3-chloroquinolin-6-yl)methyl)isonicotinamide]"
11,100 to 1000,"Nc1nccc2cc(CNC(=O)c3ccnc(Cc4ccc5ncc(Cl)cc5c4)c3)c(F)cc12 [Example 180, N-((1-amino-7-fluoroisoquinolin-6-yl)methyl)-2-((3-chloroquinolin-6-yl)methyl)isonicotinamide]"
12,≤ 100,"Cc1cc2c(N)nccc2cc1CNC(=O)c1ccnc(Cc2ccc3ncc(Cl)cc3c2)c1 [Example 181, N-((1-amino-7-methylisoquinolin-6-yl)methyl)-2-((3-chloroquinolin-6-yl)methyl)isonicotinamide]"
13,100 to 1000,"Nc1nccc2cc(CNC(=O)c3ccnc(Cc4ccc5ncc(C(F)(F)F)cc5c4)c3)c(F)cc12 [Example 182, N-((1-amino-7-fluoroisoquinolin-6-yl)methyl)-2-((3-(trifluoromethyl)quinolin-6-yl)methyl)isonicotinamide]"
14,≤ 100,"Cc1c(CNC(=O)c2ccnc(Cc3ccc4ncc(C(F)(F)F)cc4c3)c2)ccc2c(N)nccc12 [Example 184, N-((1-amino-5-methylisoquinolin-6-yl)methyl)-2-((3-(trifluoromethyl)quinolin-6-yl)methyl)isonicotinamide]"
15,≤ 100,"Nc1nc(C(F)(F)F)n2cc(CNC(=O)c3ccnc(Cc4ccc5ncc(Cl)cc5c4)c3)ccc12 [Example 186, N-((1-amino-3-(trifluoromethyl)imidazo[1,5-a]pyridin-6-yl)methyl)-2-((3-chloroquinolin-6-yl)methyl)isonicotinamide]"
